Data: PubChem BioAssay AID248 (DTP/NCI, 2004)
Several values for one entry are separate records, joined by “and”; a condition that tells them apart may be missing. Equal entries are not always repeated. Toxic doses and inconclusive results are not listed. No stated cut-off is given here; in the data, active means T/C of 150% or more; inactive means T/C below 125%.

Tested on: L1210 leukemia ip in BDF1 mice, survival T/C
Assay: NCI In Vivo Anticancer Drug Screen. Data for tumor model L1210 Leukemia (intraperitoneal) in B6D2F1 (BDF1) mice
Conditions: endpoint: mean survival time, higher = longer survival
Outline: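 Transplantable tumor model; survival measured in treated vs vehicle control mice. Value = treated/control.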

[1] = dose: 100.0 mg/kg/injection, schedule: Q04DX003 (ip), vehicle: saline
[2] = dose: 200.0 mg/kg/injection, schedule: Q04DX003 (ip), vehicle: saline
[3] = dose: 400.0 mg/kg/injection, schedule: Q04DX003 (ip), vehicle: saline
[4] = dose: 100.0 mg/kg/injection, schedule: Q04DX002 (ip), vehicle: Klucel (hydroxypropylcellulose) (HPC)
[5] = dose: 200.0 mg/kg/injection, schedule: Q04DX002 (ip), vehicle: Klucel (hydroxypropylcellulose) (HPC)
[6] = dose: 25.0 mg/kg/injection, schedule: Q01DX009 (ip), vehicle: saline with Tween-80
[7] = dose: 50.0 mg/kg/injection, schedule: Q01DX009 (ip), vehicle: saline with Tween-80
[8] = dose: 200.0 mg/kg/injection, schedule: Q01DX009 (ip), vehicle: saline with Tween-80
[9] = dose: 50.0 mg/kg/injection, schedule: Q01DX009 (ip), vehicle: saline
[10] = dose: 100.0 mg/kg/injection, schedule: Q01DX001 (ip), vehicle: saline
[11] = dose: 100.0 mg/kg/injection, schedule: Q01DX009 (ip), vehicle: saline
[12] = dose: 200.0 mg/kg/injection, schedule: Q01DX001 (ip), vehicle: saline
[13] = dose: 200.0 mg/kg/injection, schedule: Q01DX009 (ip), vehicle: saline
[14] = dose: 400.0 mg/kg/injection, schedule: Q01DX001 (ip), vehicle: saline
[15] = dose: 100.0 mg/kg/injection, schedule: Q04DX002 (ip), vehicle: saline with Tween-80
[16] = dose: 200.0 mg/kg/injection, schedule: Q04DX002 (ip), vehicle: saline with Tween-80
[17] = dose: 400.0 mg/kg/injection, schedule: Q04DX002 (ip), vehicle: saline with Tween-80

Measured: T/C

CCN(CC)CCCC(C)NC(=O)c1ccc(N(C)C)nc1 (centres undefined)
inactive: dose: 25.0 mg/kg/injection, schedule: Q01DX009 (ip), vehicle: water 97 % of control | dose: 50.0 mg/kg/injection, schedule: Q01DX009 (ip), vehicle: water 104 % of control | dose: 100.0 mg/kg/injection, schedule: Q01DX009 (ip), vehicle: water 101 % of control | dose: 200.0 mg/kg/injection, schedule: Q01DX009 (ip), vehicle: water 104 % of control | dose: 400.0 mg/kg/injection, schedule: Q01DX009 (ip), vehicle: water 101 % of control

O=C1c2cc(O)c(O)cc2O[C@H](c2ccc(O)c(O)c2)[C@H]1O
inactive: [1] 106 % of control | [2] 100 % of control | [3] 104 % of control

O=C(NC1CCCCC1)Oc1ccc2ccccc2c1
inactive: [4] 102 % of control | [5] 100 % of control | dose: 400.0 mg/kg/injection, schedule: Q04DX002 (ip), vehicle: Klucel (hydroxypropylcellulose) (HPC) 107 % of control

O=[N+]([O-])c1cc2ccccc2o1
inactive: dose: 50.0 mg/kg/injection, schedule: Q04DX002 (ip), vehicle: Klucel (hydroxypropylcellulose) (HPC) 88 % of control | [4] 97 % of control | [5] 93 % of control

COc1cc(C(C)=O)ccc1OCc1ccccc1
inactive: [6] 98 % of control and 107 % of control | [7] 96 % of control and 103 % of control | dose: 100.0 mg/kg/injection, schedule: Q01DX009 (ip), vehicle: saline with Tween-80 96 % of control and 101 % of control | [8] 93 % of control and 112 % of control

O=C(/C=C/c1ccccc1)NC(=S)Nc1ccccc1F
inactive: dose: 12.5 mg/kg/injection, schedule: Q01DX009 (ip), vehicle: saline with Tween-80 106 % of control and 88 % of control | [6] 95 % of control and 107 % of control | [7] 97 % of control | dose: 100.0 mg/kg/injection, schedule: Q01DX001 (ip), vehicle: saline with Tween-80 92 % of control | dose: 100.0 mg/kg/injection, schedule: Q04DX002 (ip), vehicle: alcohol 95 % of control and 90 % of control | dose: 100.0 mg/kg/injection, schedule: Q04DX003 (ip), vehicle: saline with Tween-80 94 % of control | dose: 200.0 mg/kg/injection, schedule: Q01DX001 (ip), vehicle: saline with Tween-80 90 % of control | [8] 89 % of control | dose: 200.0 mg/kg/injection, schedule: Q04DX002 (ip), vehicle: alcohol 101 % of control | dose: 200.0 mg/kg/injection, schedule: Q04DX003 (ip), vehicle: saline with Tween-80 87 % of control | dose: 400.0 mg/kg/injection, schedule: Q01DX001 (ip), vehicle: saline with Tween-80 87 % of control | dose: 400.0 mg/kg/injection, schedule: Q01DX009 (ip), vehicle: saline with Tween-80 86 % of control | dose: 400.0 mg/kg/injection, schedule: Q04DX002 (ip), vehicle: alcohol 102 % of control | dose: 400.0 mg/kg/injection, schedule: Q04DX003 (ip), vehicle: saline with Tween-80 86 % of control

O=C(O)c1ccc(C(=O)O)c(O)c1O
inactive: [9] 120 % of control | [10] 100 % of control | [11] 105 % of control | [1] 89 % of control | [12] 92 % of control | [13] 116 % of control | [2] 96 % of control | [14] 94 % of control

CCOC(=O)CC(=O)NCCc1cccc(OC)c1OC
inactive: [1] 93 % of control | [2] 90 % of control | [3] 93 % of control

Nc1cc(Cl)ccc1N1CCCC1
inactive: [1] 94 % of control | [2] 90 % of control

CCOC(=O)c1ccc2c3c(ccc([N+](=O)[O-])c13)CC2
inactive: dose: 50.0 mg/kg/injection, schedule: Q01DX001 (ip), vehicle: saline 98 % of control | [10] 104 % of control | [12] 101 % of control | [14] 98 % of control

Cc1cc(N(C)C)nc(SCc2ccc(Cl)cc2Cl)n1
inactive: dose: 200.0 mg/kg/injection, schedule: Q01DX Z (ip), vehicle: methylcellulose (MC) 105 % of control

Cc1c(C)c2c(C(=O)O)c3ccccc3nc2c2ccccc12
inactive: dose: 50.0 mg/kg/injection, schedule: Q01DX001 (ip), vehicle: alcohol 96 % of control | dose: 100.0 mg/kg/injection, schedule: Q01DX001 (ip), vehicle: alcohol 102 % of control | dose: 200.0 mg/kg/injection, schedule: Q01DX001 (ip), vehicle: alcohol 92 % of control | dose: 400.0 mg/kg/injection, schedule: Q01DX001 (ip), vehicle: alcohol 105 % of control

CC(C)OC(=O)Nc1cccc(NC(=O)OCCCl)c1
inactive: [15] 97 % of control | [16] 101 % of control | [17] 97 % of control

C1OCOCO1
inactive: dose: 25.0 mg/kg/injection, schedule: Q01DX009 (ip), vehicle: saline 92 % of control | [9] 97 % of control | [11] 95 % of control | [13] 97 % of control

O=C(/C=C/c1ccco1)c1ccc([N+](=O)[O-])cc1
inactive: dose: 25.0 mg/kg/injection, schedule: Q04DX003 (ip), vehicle: Klucel (hydroxypropylcellulose) (HPC) 106 % of control | dose: 50.0 mg/kg/injection, schedule: Q04DX003 (ip), vehicle: Klucel (hydroxypropylcellulose) (HPC) 104 % of control | dose: 100.0 mg/kg/injection, schedule: Q04DX003 (ip), vehicle: Klucel (hydroxypropylcellulose) (HPC) 97 % of control

COc1cc(CNC(=O)NCCCl)cc(OC)c1OC
inactive: dose: 100.0 mg/kg/injection, schedule: Q01DX001 (ip), vehicle: Klucel (hydroxypropylcellulose) (HPC) 96 % of control | dose: 100.0 mg/kg/injection, schedule: Q01DX009 (ip), vehicle: Klucel (hydroxypropylcellulose) (HPC) 94 % of control | dose: 200.0 mg/kg/injection, schedule: Q01DX001 (ip), vehicle: Klucel (hydroxypropylcellulose) (HPC) 88 % of control | dose: 200.0 mg/kg/injection, schedule: Q01DX009 (ip), vehicle: Klucel (hydroxypropylcellulose) (HPC) 95 % of control | dose: 400.0 mg/kg/injection, schedule: Q01DX001 (ip), vehicle: Klucel (hydroxypropylcellulose) (HPC) 98 % of control | dose: 400.0 mg/kg/injection, schedule: Q01DX009 (ip), vehicle: Klucel (hydroxypropylcellulose) (HPC) 90 % of control

CCN(C(=O)c1ccccc1Cl)C(c1ccco1)P(=O)(c1ccccc1)c1ccccc1 (centres undefined)
inactive: [15] 93 % of control | [16] 86 % of control | [17] 117 % of control

CC(=O)OC1CCC2(C)C(=CC(=O)C3=C2CCC2(C)C3CCC2C(C)/C=C/C(C)C(C)C)C1 (centres undefined)
inactive: [11] 92 % of control | [1] 88 % of control | [13] 95 % of control | [2] 97 % of control | dose: 400.0 mg/kg/injection, schedule: Q01DX009 (ip), vehicle: saline 92 % of control | [3] 91 % of control
